Results published in patent US20170298051A1, “ACTIVATOR OF ADIPONECTIN RECEPTOR” (THE UNIVERSITY OF TOKYO, priority 2013, published 2017).

What was measured:
AdipoR1 [1] = test: Measurement of AMPK phosphorylation ability (Assay 2), C2C12 cells with unrelated or AdipoR1 siRNA; assay type: cell-based, Mouse
Procedure, shortened: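 Differentiated C2C12 myotubes (DMEM, 2.5% horse serum) transfected with 5 μM siRNA stock via Lipofectamine RNAiMAX, serum-starved next day, then exposed to test compound for 10 min. Plates snap-frozen in liquid nitrogen; pAMPK and total AMPK quantified as in Assay 1.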

mice fed with a HF diet = test: Treadmill exercise endurance in mice fed a HF diet; assay type: in vivo
Description: The treadmill exercise test regimen was 15 m/min for 20 min. Exercise endurance was assessed by dividing 20 min by the number of times a mouse was unable to avoid electrical shocks.

[2] = system: AdipoR1-AMPK pathway and AdipoR2-PPARα pathway in the liver; test: Liver: gene expression, TG content, TBARS in mice fed a HF diet; assay type: in vivo
Description: Real-time PCR was carried out according to the method described previously^a,b,c. Total RNA was prepared from cells or tissues with Trizol (Invitrogen) according to the manufacturer's instructions. We used a real-time PCR method to quantify the mRNAs^19, with slight modifications.
Skeletal muscle homogenates were extracted, and tissue triglyceride content was determined as described previously^a-c, with some modifications. To investigate whether oxidative stress was increased, we measured lipid peroxidation, a marker of oxidative injury, as represented by plasma thiobarbituric acid reactive substance (TBARS) as described previously^4. Briefly, tissue samples were homogenized in a buffer solution containing 50 mM Tris-HCl (pH 7.4) and 1.15% KCl, and then centrifuged. The supernatant was used for the assay. The levels of lipid peroxidation in tissue homogenate and plasma were measured in terms of the amount of TBARS using the LPO test (Wako Pure Chemical Industries).

Lepr−/− (db/db) mice = test: Anti-diabetic effects in db/db mice; assay type: in vivo
Description: Mice were 6-10 week of age at the time of the experiment. They were housed in cages and maintained on a 12 hr light-dark cycle.
Male Lepr^−/− (aged 6-10 week) were purchased from Jackson Laboratory. When the mice in the same genotype received different treatments, they were randomly assigned to treatment groups.
Plasma glucose levels were determined by using a glucose B-test (Wako Pure Chemical Industries). Plasma insulin was measured with an insulin immunoassay (Shibayagi). Plasma NEFAs (Wako Pure Chemical Industries) were assayed by enzymatic methods.
The oral glucose tolerance test (OGTT) and insulin tolerance test (ITT) were conducted as previously described^a,b with slight modifications. The areas of the glucose and insulin curves were calculated by multiplying the cumulative mean height of the glucose values (1 mg/ml=1 cm) and insulin values (1 ng/ml=1 cm), respectively, by time (60 min=1 cm)^c,a. The insulin resistance index was calculated from the product of the areas of glucose and insulin×10^−2 in the glucose tolerance test. The results are expressed as the percentage of the value respect to control littermates.

db/db mice = test: Lifespan of db/db mice on a HF diet; assay type: in vivo; settings: daily dose of 30 mg kg−1 body weight
Description: Because the HF diet has been reported to shorten the lifespan, we examined whether orally administered AdipoRon could prolong the shortened lifespan due to a HF diet or not.
That is, the db/db mice were randomly divided into 3 groups: a normal chow group (Normal chow, n=20), high-fat group (High-fat, n=20) and high-fat and additionally AdipoRon group (High-fat+AdipoRon, n=20), which were treated with AdipoRon at a daily dose of 30 mg kg^−1 body weight. The survival rate was recorded daily.

AdipoR1 [3] = biological target: T1, AdipoR1 (Homo sapiens, UniProt Q96A54); test: Surface plasmon resonance, affinity for AdipoR1; assay type: binding; set-up: made in house; settings: SPR
T1 sequence (Q96A54 1-375): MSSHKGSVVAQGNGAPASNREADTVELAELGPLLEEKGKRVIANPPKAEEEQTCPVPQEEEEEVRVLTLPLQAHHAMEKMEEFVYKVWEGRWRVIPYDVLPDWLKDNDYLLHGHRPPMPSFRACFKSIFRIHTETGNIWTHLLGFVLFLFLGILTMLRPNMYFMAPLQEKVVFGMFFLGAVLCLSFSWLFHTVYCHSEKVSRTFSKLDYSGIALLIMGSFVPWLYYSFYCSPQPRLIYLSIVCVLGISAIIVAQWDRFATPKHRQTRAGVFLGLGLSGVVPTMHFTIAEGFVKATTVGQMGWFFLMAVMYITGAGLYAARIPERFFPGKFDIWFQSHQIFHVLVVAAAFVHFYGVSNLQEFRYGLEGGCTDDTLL
Description: Surface plasmon resonance measurements were performed by a BIAcore X100 system (GE Healthcare) and sensor chip SA (GE Healthcare). Human AdipoR1 and AdipoR2 were expressed with the baculovirus system, and purified to homogeneity. The AdipoR1 and AdipoR2 samples were then reconstituted into egg-phosphatidylcholine liposomes containing biotinyl phosphatidylethanolamine (Avanti), as previously reported^a. Mouse full-length adiponectin was generated as previously described^b,c,d,e. AdipoR1 and AdipoR2 were immobilized onto a sensor chip SA to levels of 2,500-3,000 response units (RU) using standard immobilization protocols (GE Healthcare).
Experiments were performed at 25° C. using AdipoRon (0.49-31.25 μM) and adiponectin (1.5 ng-3.75 μg) and using electrophoresis buffer (20 mM Hepes (pH 7.4), 200 mM NaCl, 10% glycerol, […] surfactant P20). Biacore X100 Evaluation Software was used to determine the equilibrium dissociation constant (KD) of the compound or proteins.

[4] = Adipor1/r2 double-knockout mice fed with a HF diet

O=C(COc1ccc(C(=O)c2ccccc2)cc1)NC1CCN(Cc2ccccc2)CC1 [Compound 73, 2-(4-benzoyl-phenoxy)-N-(1-benzylpiperidin-4-yl)acetamide]
pAMPK/AMPK (ratio) siRNA, AdipoR1 siRNA (AdipoR1 [1]; AdipoR1 siRNA): 2.68 ratio
pAMPK/AMPK (ratio) siRNA, unrelated siRNA (AdipoR1 [1]; unrelated siRNA): 4.75 ratio
exercise endurance (mice fed with a HF diet; [4]): but not in Adipor1/r2 double-knockout mice
exercise endurance (mice fed with a HF diet; WT mice fed with a HF diet): significantly increased exercise endurance
effect on TG content and TBARS in the liver [2, 4]: such effect was not observed
expression level of genes encoding pro-inflammatory cytokines in the liver [2, 4]: such effect was not observed
expressions of Ppargc1a and G6pc in the liver [2, 4]: such effect was not observed
expression levels of Pparα and its target genes (Acox1, Ucp2, Cat) in the liver ([2]; WT mice fed a HF diet): increased the expression levels
TG content in the liver ([2]; WT mice fed with a HF diet): significantly reduced TG content
expression level of genes encoding pro-inflammatory cytokines (Tnf, Ccl2) in the liver ([2]; WT mice fed with a HF diet): reduced the expression level
expressions of Ppargc1a and G6pc in the liver ([2]; WT mice fed with a HF diet): significantly decreased the expressions
oxidative stress, as measured by TBARS, in the liver ([2]; WT mice fed with a HF diet): significantly reduced
plasma glucose level (Lepr−/− (db/db) mice; oral 50 mg/kg body weight): decreased plasma glucose level
glucose intolerance, insulin resistance and dyslipidemia (Lepr−/− (db/db) mice; oral, 2 weeks): significantly ameliorated
lifespan (db/db mice): significantly rescued the shortened lifespan
Rmax (AdipoR1 [3]): 14.6 RU
Kd (AdipoR1 [3]; 25° C., read-out: equilibrium dissociation constant (KD)): 1800 nM
